PubChem BioAssay AID1963975 (Molecular Pharmacology Branch, DTP, NCI, 2024)

System: 624824-186-R-J2-PDC multicell spheroids, viability
Assay: Anticancer human tumor 624824-186-R-J2-PDC patient-derived colon adenocarcinoma cell line growth inhibition [PI3K]
Conditions: for IC50: curve of first compound; for viability, T/C: stronger effect = lower value; active means viability on the fitted dose curve at most 10% of control; inactive means the rest
Outline: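 We assembled tumor spheroids that included a stromal compartment of HUVEC and MSCs, then exposed them to targeted agents alone and together with PI3K pathway inhibitors. Concentration series descended by half-log from clinically achievable Cmax levels. Viability served as the endpoint.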
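Further: spheroids exposed to agents for 7 days before viability read.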
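Wherever viability, T/C is given: 100% = DMSO vehicle treated spheroids.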

Cn1cnc2c(F)c(Nc3ccc(Br)cc3Cl)c(C(=O)NOCCO)cc21 + COc1c(OCCCN2CCOCC2)ccc2c3n(c(=NC(=O)c4cnc(N)nc4)nc12)CCN3
inactive: viability, T/C (second compound 0.00316 µM, first compound 0.00949 µM) 86% | viability, T/C (second compound 0.00316 µM, first compound 0.03 µM) 74.6% | viability, T/C (second compound 0.00316 µM, first compound 0.0949 µM) 64.4% | viability, T/C (second compound 0.00316 µM, first compound 0.3 µM) 68.7% | viability, T/C (second compound 0.00316 µM, first compound 0.949 µM) 72.8% | viability, T/C (second compound 0.00316 µM, first compound 3 µM) 63.1% | viability, T/C (second compound 0.01 µM, first compound 0.00949 µM) 79.3% | viability, T/C (second compound 0.01 µM, first compound 0.03 µM) 75.7% | viability, T/C (second compound 0.01 µM, first compound 0.0949 µM) 66.5% | viability, T/C (second compound 0.01 µM, first compound 0.3 µM) 62.6% | viability, T/C (second compound 0.01 µM, first compound 0.949 µM) 62.8% | viability, T/C (second compound 0.01 µM, first compound 3 µM) 51.4% | viability, T/C (second compound 0.0316 µM, first compound 0.00949 µM) 70.8% | viability, T/C (second compound 0.0316 µM, first compound 0.03 µM) 59.2% | viability, T/C (second compound 0.0316 µM, first compound 0.0949 µM) 53% | viability, T/C (second compound 0.0316 µM, first compound 0.3 µM) 51.5% | viability, T/C (second compound 0.0316 µM, first compound 0.949 µM) 42.4% | viability, T/C (second compound 0.0316 µM, first compound 3 µM) 28.5% | viability, T/C (second compound 0.1 µM, first compound 0.00949 µM) 60% | viability, T/C (second compound 0.1 µM, first compound 0.03 µM) 54.6% | viability, T/C (second compound 0.1 µM, first compound 0.0949 µM) 36% | viability, T/C (second compound 0.1 µM, first compound 0.3 µM) 37.4% | viability, T/C (second compound 0.1 µM, first compound 0.949 µM) 31.4% | viability, T/C (second compound 0.1 µM, first compound 3 µM) 15.3% | viability, T/C (second compound 0.316 µM, first compound 0.00949 µM) 50.7% | viability, T/C (second compound 0.316 µM, first compound 0.03 µM) 38.9% | viability, T/C (second compound 0.316 µM, first compound 0.0949 µM) 39.9% | viability, T/C (second compound 0.316 µM, first compound 0.3 µM) 28.3% | viability, T/C (second compound 0.316 µM, first compound 0.949 µM) 18.9% | viability, T/C (second compound 1 µM, first compound 0.00949 µM) 49.1% | viability, T/C (second compound 1 µM, first compound 0.03 µM) 39.7% | viability, T/C (second compound 1 µM, first compound 0.0949 µM) 33.5% | viability, T/C (second compound 1 µM, first compound 0.3 µM) 26.4% | viability, T/C (second compound 1 µM, first compound 0.949 µM) 11.1%
38 nM: IC50 (second compound 0.1 µM)
> 3000 nM: IC50 (second compound 0.00316 µM) | IC50 (second compound 0.01 µM)
243 nM: IC50 (second compound 0.0316 µM)
active: viability, T/C (second compound 0.316 µM, first compound 3 µM) 2.2% | viability, T/C (second compound 1 µM, first compound 3 µM) 1.13%
< 9.49 nM: IC50 (second compound 0.316 µM) | IC50 (second compound 1 µM)
